# What was measured:
# [1] = Rat hemorrhagic shock, normal saline resuscitation: blood gases, hematocrit, lactate, MAP; type: in vivo
# Method: Animal Studies. Male Sprague-Dawley rats (340 to 380 g) (Envigo, Indianapolis, IN) were housed for at least 4 days in a room with controlled temperature (23±1° C.), humidity (50±10%) and light (6:00 A.M. to 6:00 P.M.) before being used. Food and water were made available continuously. Animal care and use for experimental procedures were approved by the Institutional Animal Care and Use Committee of the Midwestern University. All anesthetic and surgical procedures were in compliance with the guidelines established by the Animal Care Committee.
# Determination of cardiovascular response. The animals were anesthetized with urethane dissolved in isotonic saline. Urethane was administered in a dose of 1.5 g per kg body weight via intraperitoneal injection. Urethane was selected as an anesthetic agent, because it produces long lasting (8-10 hours) anesthesia with minimal cardiovascular and respiratory system depression. It produces a level of surgical anesthesia characterized by preservation of cardiovascular reflexes (Maggi and Meli 1986). Briefly, anaesthetized rats were immobilized on a surgical board equipped with controlled heating pad. Blood PO2, Pco2 and pH, were maintained using a tracheotomy cannula connected to a rodent ventilator (Model 683, Harvard Apparatus Inc., Holliston, MA). MAP and HR were measured by cannulating the left femoral artery with pressure catheter SPR-320 (Millar Instruments), connected to the ML221 bridge amplifier (AD Instruments) through AEC-10C connector and the signals were acquired (1000 S^−1) using PowerLab 16/30 data acquisition system (Gulati et al. 2012; Pacher et al. 2008). A Perimed laser Doppler flow probe was placed in the renal medulla to measure blood perfusion and data was captured on PowerLab 16/30 data acquisition system. The left femoral vein was cannulated using PE 50 tubing (Clay Adams, Parsipanny, NJ) and secured for resuscitation.
# Determination of arterial blood gases and base deficit. Baseline arterial blood pH, PO2, Pco2, Na^+, K^+ and lactate were monitored prior to induction of shock, 30 minutes after induction of shock, and 30 and 60 minutes following vehicle or centhaquin resuscitation. Blood samples (0.15 ml) were drawn from the arterial cannula using blood gas sampling syringes (Innovative Medical Technologies, Inc. Leawood, KS) and analyzed using a pHOx Ultra analyzer (Nova Biomedical Corporation, Waltham, MA). The base deficit was calculated using the formula (Davis et al. 1998; Paladino et al. 2008): SBD=0.9287×[HCO3^−−24.4+14.83×(pH-7.4)]
# Induction of Hemorrhagic Shock. Hemorrhage was induced by withdrawing blood from the femoral artery at a rate of approximately 0.5 to 1 mL/min until a MAP of 35 mmHg was reached. This MAP was maintained for 30 minutes by further withdrawal of blood, if necessary. The hemorrhagic shock model used in the present study is a well-established rodent model of manageable pressure hemorrhage (Buehler et al. 2000; Gulati et al. 1997; Gulati and Sen 1998). The volume of blood loss was about approximately 8.0 ml in each rat and was similar in various groups, amounting to approximately 40% of the total blood. Measured hematocrit levels were similar in various groups. […]
# Experimental design. […] Additional experiments were also carried out where the amount of norepinephrine (a very commonly used vasopressor during resuscitation) required to maintain MAP at 70 mmHg in normal saline (NS) or centhaquin (0.01 mg/kg) treated rats (volume equal to blood loss) was determined. […]
# [2] = Renal blood perfusion in hemorrhaged rats with norepinephrine infusion to maintain MAP at 70 mmHg; type: in vivo, rat
# Method: Experimental design. To determine the resuscitative effect of centhaquin on cardiovascular system in hemorrhagic shock, rats were randomly divided into three groups: Hemorrhaged rats were administered 100% shed blood volume of either normal saline (vehicle); 100% shed blood volume of either normal saline plus centhaquin (0.01 mg/kg) or 100% shed blood volume of either normal saline plus centhaquin (0.10 mg/kg) during the first 10 minutes of resuscitation. Additional experiments were also carried out where the amount of norepinephrine (a very commonly used vasopressor during resuscitation) required to maintain MAP at 70 mmHg in normal saline (NS) or centhaquin (0.01 mg/kg) treated rats (volume equal to blood loss) was determined.
# The femoral vein was cannulated for drug administration, femoral artery was cannulated for measuring mean arterial pressure (MAP) and a laser Doppler flow probe was placed in the renal medulla to measure blood perfusion. Induction of hemorrhagic shock was initiated by withdrawing blood to maintain the MAP at 35 mmHg for 30 minutes. Norepinephrine infusion was carried out to bring and maintain the MAP to 70 mmHg. The effect of centhaquin on cardiovascular functions were measured before the induction of shock, 30 minutes after shock (hemorrhage) and 15, 30, 45, 60, 75 and 90 minutes after resuscitation. […]
# [3] = cited from earlier work
smiles,measurement,setting,value
"Cc1cccc(N2CCN(CCc3ccc4ccccc4n3)CC2)c1 [centhaquin, 2-[2-(4-(3-methyphenyl)-1-piperazinyl)]ethyl-quinoline]",effect on blood pH of hemorrhaged rats,[1]; centhaquin 0.01 and 0.10 mg/kg in normal saline,significantly prevented the reduction of pH
same,MAP post resuscitation,"[1]; centhaquin 0.01 and 0.10 mg/kg, p<0.01",significant increase
same,blood lactate levels compared to the saline group,[1]; normal saline model,decrease
same,change in hematocrit after treatment,[1]; normal saline model,no change
same,effect on hemorrhage-induced decrease in pCO2 and increase in pO2,[1]; resuscitation with centhaquin in normal saline,not affected
same,renal blood perfusion compared to vehicle control following resuscitation,"[2]; hemorrhaged female rats, till the end of experiment",improved
same,renal blood perfusion compared to vehicle control following resuscitation,[2]; hemorrhaged male rats,improved
same,survival of hemorrhaged rats,[3]; administered in one-fifth the volume of blood loss,improved the survival
same,blood lactate,[3]; rat model of hemorrhagic shock,decreased blood lactate
same,cardiac output (CO),[3]; rat model of hemorrhagic shock,significantly improved CO
same,survival,[3]; rat model of hemorrhagic shock,improved survival

# From US12629406B2, “Alterations in endothelin receptors following hemorrhage and resuscitation by centhaquin” (MIDWESTERN UNIVERSITY, priority 2018, dated 2026)
